Here are results for five compounds from patent US8415115B2, “Reaction medium for methicillin-resistant Staphylococcus aureus (MRSA) bacteria” (Biomerieux, priority 2008, dated 2013).

Experiment [1] concerns Methicillin-resistant Staphylococcus aureus (MRSA). The experiment is described as follows: Detection of MRSA strains (colored colonies) on chromID MRSA based media with alpha-glucosidase substrates and antibiotics. The format is cell-based. As to conditions: Example B, alpha-glucosidase substrates. The procedure: The media tested in the experiments hereinafter were media comprising the chromID MRSA medium (bioMérieux ref. 43 451) as basic medium, and comprising the following elements: • Medium T: chromID MRSA control medium (ref. 43 451), comprising in particular an X-N-methyl-alpha-glucoside substrate, at a concentration of 0.1 g/l, and Cefoxitin at 4 mg/1. • Medium S: medium T, also comprising an X-alpha-glucoside substrate, at a concentration of 25, 37, 45 or 50 mg/l. • Medium A: medium S (X-alpha-glucoside concentration: 45 mg/l), the Cefoxitin being substituted with Ceftriaxone, at a concentration of 1, 2, 4, 8, 16, 32 mg/l. • Medium B: medium S (X-alpha-glucoside concentration: 45 mg/l), the Cefoxitin being substituted with Cefotaxime at a concentration of 1, 2, 4, 8, 16, 32 mg/l. • Medium C: medium S (X-alpha-glucoside concentration: 45 mg/l), the Cefoxitin being substituted with Ertapenem at a concentration of 0.1, 0.25, 0.5, 0.75, 1 mg/l. • Medium D: medium S (X-alpha-glucoside concentration: 45 mg/l), the Cefoxitin being substituted with Cefoperazone at a concentration of 0.5, 1, 1.5, 2 mg/l. • Medium E: medium S (X-alpha-glucoside concentration: 45 mg/l), the Cefoxitin being substituted with Cefpodoxime at a concentration of 0.5, 1, 1.5, 2 mg/l. • Medium F: medium S (X-alpha-glucoside concentration: 45 mg/l), the Cefoxitin being substituted with a Cefoxitin/Cefotaxime concentration at the concentrations below:
• Medium G: medium S (X-alpha-glucoside concentration: 45 mg/l), the Cefoxitin being substituted with a Cefoxitin/Ceftriaxone combination at the concentrations below:
• Medium H: medium S (X-alpha-glucoside concentration: 45 mg/l), the Cefoxitin being substituted with a Cefoxitin/Ertapenem combination at the concentrations below:
• Medium I: medium S (X-alpha-glucoside concentration: 45 mg/l), the Cefoxitin being substituted with a Cefoxitin/Cefpodoxime combination at the concentrations below:
• Medium J: medium S (X-alpha-glucoside concentration: 45 mg/1), the Cefoxitin being substituted with a Cefoxitin/Cefoperazone combination at the concentrations below:
• Medium K: medium S (X-alpha-glucoside concentration: 45 mg/l), the Cefoxitin being substituted with a Cefoxitin/Cefotaxime combination, at the concentrations below, also comprising a mixture of inhibitors that favour the growth of Staphylococcus aureus.
• Medium L: medium S (X-alpha-glucoside concentration: 45 mg/l), the Cefoxitin being substituted with Cefdinir at a concentration of 0.25, 0.5, 1, 2, 4, 8 mg/l. • Medium M: medium S (X-alpha-glucoside concentration: 45 mg/l), the Cefoxitin being substituted with a Cefoxitin/Cefdinir combination at the concentrations below: […]
The strains detected correspond to the strains forming colored colonies on the medium.

Another experiment concerns MSSAs. Put plainly: Sub-inhibitory concentration: below the antibiotic concentration required for inhibition of MSSAs in a culture medium. The conditions noted are these: culture medium such as chromID S. aureus medium. Type of experiment: cell-based, Staphylococcus aureus. The procedure:
The sub-inhibitory concentration is intended to mean a concentration below the concentration of antibiotic required for inhibition of MSSAs, in a culture medium suitable for searching for S. aureus using a biological sample, such as the chromID™ S. aureus medium (bioMerieux). This concentration is below approximately 3 mg/l in the case of Cefoxitin, approximately 2 mg/l in the case of Cefotaxime, approximately 1 mg/l in the case of Ertapenem, approximately 2 mg/l in the case of Cefoperazone, approximately 2 mg/l in the case of Cefpodoxime, and approximately 1 mg/l in the case of Cefdinir.

Regarding `CCN1CCN(C(=O)N[C@@H](C(=O)N[C@@H]2C(=O)N3C(C(=O)O)=C(CSc4nnnn4C)CS[C@H]23)c2ccc(O)cc2)C(=O)C1=O` [Cefoperazone], the “Sensitivity and specificity, MRSAs distinguished from MSSAs (in words)” value (“Sensitivity and specificity” for short) in experiment [1] was “did not make it possible to obtain, on their own, a sensitivity and a specificity enabling MRSAs to be distinguished from MSSAs”. On to `CO/N=C(\C(=O)N[C@@H]1C(=O)N2C(C(=O)O)=C(COC(C)=O)CS[C@H]12)c1csc(N)n1` [Cefotaxime], for which, in experiment [1], the “Sensitivity and specificity” value is “did not make it possible to obtain, on their own, a sensitivity and a specificity enabling MRSAs to be distinguished from MSSAs”. For `CO[C@@]1(NC(=O)Cc2cccs2)C(=O)N2C(C(=O)O)=C(COC(N)=O)CS[C@@H]21` [Cefoxitin], in the experiment on MSSAs, the Sub-inhibitory concentration was below 3 mg/L. With `CO/N=C(\C(=O)N[C@@H]1C(=O)N2C(C(=O)O)=C(CSc3nc(=O)c(=O)[nH]n3C)CS[C@H]12)c1csc(N)n1` [Ceftriaxone], the “Sensitivity and specificity” value in experiment [1] was “did not make it possible to obtain, on their own, a sensitivity and a specificity enabling MRSAs to be distinguished from MSSAs”. On the same count and under the same terms, next, `C[C@@H](O)[C@H]1C(=O)N2C(C(=O)O)=C(S[C@@H]3CN[C@H](C(=O)Nc4cccc(C(=O)O)c4)C3)[C@H](C)[C@H]12` [Ertapenem]: “did not make it possible to obtain, on their own, a sensitivity and a specificity enabling MRSAs to be distinguished from MSSAs”.
